Laboratory results: patent US20250206745A1, “PYRROLOPYRIDAZINE DERIVATIVES AND RELATED USES” (NodThera Limited, priority 2023, published 2025)
Where a name gives a salt, the structure may show the parent alone.

Tests used:
[1] = system: IL-1β release upon NLRP3 activation in peripheral blood mononuclear cells (PBMC); assay: PBMC IC50 Determination Assay; assay type: cell-based; conditions: Homo sapiens; inhibition of IL-1β release; PBMC primed with LPS, stimulated with ATP or nigericin; ELISA or HTRF
Experimental: The compounds of the present disclosure were tested for their inhibitory activity against IL-1β release upon NLRP3 activation in peripheral blood mononuclear cells (PBMC).
Protocol A. PBMC were isolated from buffy coats by density gradient centrifugation on Histopaque-1077 (Sigma, cat no. 10771). Isolated cells were seeded into the wells of a 96-well plate and incubated for 3 h with lipopolysaccharide (LPS). Following medium exchange, the compounds of the present disclosure were added (a single compound per well) and the cells were incubated for 30 min. Next, the cells were stimulated either with ATP (5 mM) or nigericin (10 μM) for 1 h and the cell culture media from the wells were collected for further analysis.
The release of IL-1β into the media was determined by a quantitative detection of IL-1β in the media using an IL-1β enzyme-linked immunosorbent assay (ELISA) Ready-SET-Go!, eBioscience cat. No. 88-7261-88. Briefly, in a first step, high affinity binding plates (Corning, Costar 9018 or NUNC Maxisorp Cat No. 44-2404) were coated overnight at 4° C. with specific capture antibody included in the kit (anti-human IL-1β ref. 14-7018-68). Subsequently, plates were blocked with blocking buffer for 1 h at room temperature (rt) and after washing with a buffer (PBS with 0.05% Tween-20) incubated with protein standard and culture media. After 2 h of incubation at rt, plates were washed and incubated with biotinylated detection antibody included in the kit (anti-human IL-1β Biotin ref. 33-7110-68) for 1 h at rt. Plates were washed and incubated with HRP-streptavidin for 30 min at rt and washed again. The signal was developed after addition of 3,3′,5,5′-tetramethylbenzidine-peroxidase (TMB) until colour appeared and the reaction was stopped by 2 M H2SO4. A microplate spectrophotometer (BioTek) was used to detect signals with 450 nm. The detection range of IL-1β ELISA was […].
Protocol B. PBMC were isolated from buffy coats by density gradient centrifugation on Histopaque-1077 (Sigma, cat no. 10771). Isolated cells were seeded into the wells (280,000 cells/well) of a 96-well plate and incubated for 3 h with lipopolysaccharide (LPS, 1 μg/mL diluted 1000× from a 1 mg/mL stock solution). The compounds of the present disclosure were added (a single compound per well) and the cells were incubated for 30 min. Next, the cells were stimulated with ATP (5 mM final concentration diluted 20× from a 100 mM stock solution) for 1 h and the cell culture media from the wells were collected for further analysis.
The release of IL-1β into the media was determined by quantitative detection of IL-1β in the media using HTRF®, CisBio cat. No. 62HIL1BPEH. Briefly, cell culture supernatant were dispensed directly into the assay plate containing antibodies labelled with the HTRF® donor and acceptor. A microplate spectrophotometer (BMG) was used to detect signals at 655 nm and 620 nm. The detection range of IL-1β HTRF® was 39-6500 pg/mL.

[2] = system: IL-1β release upon NLRP3 activation in phorbol 12-myristate 13-acetate (PMA)-differentiated THP-1 cells; assay: THP-1 IC50 Determination Assay; assay type: cell-based; conditions: Homo sapiens, inhibition of IL-1β release, LPS, nigericin, ELISA
Procedure, shortened: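 THP-1 cells differentiated with 5 ng/mL PMA for ~40 h, plated 30,000/well and primed 2 h with 25 ng/mL LPS. Compounds added as 8-point 1:3 series (0.5% DMSO), then nigericin activation for 2 h at 37 °C; supernatant IL-1β measured by ELISA.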

| Structure (SMILES) | IC50 [2] [nM] | IC50 [1] [nM] |
| --- | --- | --- |
| Cc1cc(Cl)cc(O)c1-c1cc2ccn(CC3(F)CCN(C)CC3)c2nn1 [Compound 27, 5-Chloro-2-{7-[(4-fluoro-1-methylpiperidin-4-yl)methyl]-7H-pyrrolo[2,3-c]pyridazin-3-yl}-3-methylphenol hydrochloride] | 100 to 300 | 30 to 100 |
| Cc1cc(Cl)cc(O)c1-c1cc2ncn(CC3(F)CCN(C)CC3)c2nn1 [Compound 78, 5-Chloro-2-{7-[(4-fluoro-1-methylpiperidin-4-yl)methyl]-7H-imidazo[4,5-c]pyridazin-3-yl}-3-methylphenol hydrochloride] | 30 to 100 | 30 to 100 |
| Cc1cc(C(F)(F)F)cc(O)c1-c1cc2ccn(CC3CCCO3)c2nn1 (stereo not drawn) [Compound 2, 3-Methyl-2-{7-[(oxolan-2-yl)methyl]-7H-pyrrolo[2,3-c]pyridazin-3-yl}-5-(trifluoromethyl)phenol] | 100 to 300 | 300 to 1000 |
| Cc1cc(Cl)cc(O)c1-c1cc2ncn(C[C@@H]3CCN(C)C3)c2nn1 [Compound 75, 5-Chloro-3-methyl-2-(7-{[(3R)-1-methylpyrrolidin-3-yl]methyl}-7H-imidazo[4,5-c]pyridazin-3-yl)phenol hydrochloride] | 100 to 300 | 30 to 100 |
| Cc1cc(Cl)cc(O)c1-c1cc2ccn(CC3(C#N)CCN(C)CC3)c2nn1 [Compound 55, 4-{[3-(4-Chloro-2-hydroxy-6-methylphenyl)-7H-pyrrolo[2,3-c]pyridazin-7-yl]methyl}-1-methylpiperidine-4-carbonitrile] | 30 to 100 | 30 to 100 |
| Cc1cc(Cl)cc(O)c1-c1cc2ccn(CCN3CCN(C)CC3)c2nn1 [Compound 13, 5-Chloro-3-methyl-2-{7-[2-(4-methylpiperazin-1-yl)ethyl]-7H-pyrrolo[2,3-c]pyridazin-3-yl}phenol dihydrochloride] | 300 to 1000 | 300 to 1000 |
| CC(=O)NCCn1ccc2cc(-c3c(C)cc(Cl)cc3O)nnc21 [Compound 44, N-{2-[3-(4-Chloro-2-hydroxy-6-methylphenyl)-7H-pyrrolo[2,3-c]pyridazin-7-yl]ethyl}acetamide] | 300 to 1000 | 300 to 1000 |
| Cc1cc(Cl)cc(O)c1-c1cc2ncn(CC3CCN(C)CC3)c2nn1 [Compound 71, 5-Chloro-3-methyl-2-{7-[(1-methylpiperidin-4-yl)methyl]-7H-imidazo[4,5-c]pyridazin-3-yl}phenol] | 30 to 100 | < 30 |
| Cc1cc(Cl)cc(O)c1-c1cc2ccn(CCN3CCCC(F)C3)c2nn1 (stereo not drawn) [Compound 33, 5-Chloro-2-{7-[2-(3-fluoropiperidin-1-yl)ethyl]-7H-pyrrolo[2,3-c]pyridazin-3-yl}-3-methylphenol hydrochloride] | 300 to 1000 | 30 to 100 |
| Cc1cc(Cl)cc(O)c1-c1cc2ccn(CC(=O)N3CCCC3)c2nn1 [Compound 30, 2-[3-(4-Chloro-2-hydroxy-6-methylphenyl)-7H-pyrrolo[2,3-c]pyridazin-7-yl]-1-(pyrrolidin-1-yl)ethan-1-one] | 300 to 1000 | 300 to 1000 |
| CNC(=O)CCn1ccc2cc(-c3c(C)cc(Cl)cc3O)nnc21 [Compound 20, 3-[3-(4-Chloro-2-hydroxy-6-methylphenyl)-7H-pyrrolo[2,3-c]pyridazin-7-yl]-N-methylpropanamide] | 300 to 1000 | 300 to 1000 |
| CC(=O)N1CCC(Cn2cnc3cc(-c4c(C)cc(Cl)cc4O)nnc32)CC1 [Compound 72, 1-(4-{[3-(4-Chloro-2-hydroxy-6-methylphenyl)-7H-imidazo[4,5-c]pyridazin-7-yl]methyl}piperidin-1-yl)ethan-1-one] | 30 to 100 | 30 to 100 |

Further lines, with some results ahead:

| IC50 [2] [nM] | Structure (SMILES) | IC50 [1] [nM] |
| --- | --- | --- |
| 300 to 1000 | Cc1cc(Cl)cc(O)c1-c1cc2ccn(C[C@H]3CCCCN3C)c2nn1 [Compound 47, 5-Chloro-3-methyl-2-(7-{[(2R)-1-methylpiperidin-2-yl]methyl}-7H-pyrrolo[2,3-c]pyridazin-3-yl)phenol hydrochloride] | 100 to 300 |
| 100 to 300 | Cc1cc(Cl)cc(O)c1-c1cc2ccn(CCN3CCOCC3)c2nn1 [Compound 12, 5-Chloro-3-methyl-2-{7-[2-(morpholin-4-yl)ethyl]-7H-pyrrolo[2,3-c]pyridazin-3-yl}phenol hydrochloride] | 300 to 1000 |
| 100 to 300 | Cc1cc(Cl)cc(O)c1-c1cc2ccn(C[C@@H]3CCN(C)C[C@@H]3F)c2nn1 (relative stereo) [Compound 24, Cis-5-chloro-2-{7-[(3-fluoro-1-methylpiperidin-4-yl)methyl]-7H-pyrrolo[2,3-c]pyridazin-3-yl}-3-methylphenol] | 30 to 100 |
| 100 to 300 | Cc1cc(Cl)cc(O)c1-c1cc2ccn(CC(=O)N(C)C3COC3)c2nn1 [Compound 58, 2-[3-(4-Chloro-2-hydroxy-6-methylphenyl)-7H-pyrrolo[2,3-c]pyridazin-7-yl]-N-methyl-N-(oxetan-3-yl)acetamide] | 100 to 300 |
| 300 to 1000 | Cc1cc(Cl)cc(O)c1-c1cc2ccn(CC3CCOCC3)c2nn1 [Compound 37, 5-Chloro-3-methyl-2-{7-[(oxan-4-yl)methyl]-7H-pyrrolo[2,3-c]pyridazin-3-yl}phenol] | 100 to 300 |
| 300 to 1000 | Cc1cc(Cl)cc(O)c1-c1cc2ccn(CC3COCCN3C)c2nn1 (stereo not drawn) [Compound 41, 5-Chloro-3-methyl-2-{7-[(4-methylmorpholin-3-yl)methyl]-7H-pyrrolo[2,3-c]pyridazin-3-yl}phenol hydrochloride] | 100 to 300 |
| 100 to 300 | Cc1cc(Cl)cc(O)c1-c1cc2ccn(CC3CCN(S(C)(=O)=O)CC3)c2nn1 [Compound 31, 5-Chloro-2-{7-[(1-methanesulfonylpiperidin-4-yl)methyl]-7H-pyrrolo[2,3-c]pyridazin-3-yl}-3-methylphenol] | 100 to 300 |
| 300 to 1000 | Cc1cc(Cl)cc(O)c1-c1cc2ccn(CC3CCCN3C)c2nn1 (stereo not drawn) [Compound 39, 5-Chloro-3-methyl-2-{7-[(1-methylpyrrolidin-2-yl)methyl]-7H-pyrrolo[2,3-c]pyridazin-3-yl}phenol hydrochloride] | 100 to 300 |
| 100 to 300 | Cc1cc(Cl)cc(O)c1-c1cc2ccn(CC(=O)N(C)[C@H]3CCOC3)c2nn1 [Compound 59, 2-[3-(4-Chloro-2-hydroxy-6-methylphenyl)-7H-pyrrolo[2,3-c]pyridazin-7-yl]-N-methyl-N-[(3S)-oxolan-3-yl]acetamide] | 30 to 100 |
| 300 to 1000 | Cc1cc(C#N)cc(O)c1-c1cc2ccn(CC3CCN(C)CC3)c2nn1 [Compound 54, 3-Hydroxy-5-methyl-4-{7-[(1-methylpiperidin-4-yl)methyl]-7H-pyrrolo[2,3-c]pyridazin-3-yl}benzonitrile] | 100 to 300 |
| 300 to 1000 | Cc1cc(C(F)(F)F)cc(O)c1-c1cc2ccn(CC3CCOCC3)c2nn1 [Compound 1, 3-Methyl-2-{7-[(oxan-4-yl)methyl]-7H-pyrrolo[2,3-c]pyridazin-3-yl}-5-(trifluoromethyl)phenol] | 100 to 300 |
| 30 to 100 | Cc1cc(Cl)cc(O)c1-c1cc2ccn(CC3CCC(=O)N3C)c2nn1 (stereo not drawn) [Compound 65, 5-{[3-(4-Chloro-2-hydroxy-6-methylphenyl)-7H-pyrrolo[2,3-c]pyridazin-7-yl]methyl}-1-methylpyrrolidin-2-one] | 30 to 100 |
